Measured values taken from patent publication US20130273176A1, “METHODS AND COMPOSITIONS USEFUL FOR PROMOTING SLEEP IN ANIMALS” (Nestec SA, priority 2010, published 2013).

Experiments:
senior dogs [1] = test: Actiwatch activity recording, Example 2 (melatonin only, cross-over, AM or PM); assay type: in vivo, dog; conditions: for Total Daytime Activity Counts: melatonin only, mean +/- std error
Method: Using a cross-over design, all animals were administered a control placebo and a treatment supplement containing melatonin. The animals were senior animals, dogs greater than 10 years of age. There were 4 males and 4 females in each group. For the intervention phases (phases 2 and 4), all animals were administered melatonin in the AM or PM. During the control and cross-over phases (phase 1 and 3, respectively) the animals were administered a placebo comprising methylcellulose contained in a gel capsule in the AM or PM, as appropriate. Each phase lasted 35 days. Starting on day 29 of each phase, the animals locomotor behavioral activity was monitored for 4 consecutive days. The placebo consisted of the carrier (methylcellulose) contained in a gel capsule and was provided during the control phases (Phases 1 and 3) either with the AM or PM feeding, as appropriate to complement the supplement time (luring the following intervention phase. For example, placebo in AM during phase 1, then supplement in AM during phase 2. For phase 2, the first supplement treatment phase, the animals were given supplements of melatonin. Further, for half of the animals, the supplements were in the morning with the AM feeding and half were given in the evening with the PM feeding. Thus, of the 4 males, 2 were administered the melatonin in the morning and two in the evening. During phase 3, the second control phase, delivery of the methylcellulose in a gel capsule was provided either with the AM or PM feeding, as appropriate to cross-over the treatment from phase 1-2. For phase 4, the second supplement treatment phase, the procedure was exactly the same as phase 2, except that for a given animal the supplementation time was switched from phase 2. Thus, if male was administered melatonin in the morning with the AM feeding in phase 2, the male was administered melatonin in the evening with the PM feeding in phase 4. Data analysis of periods indicated no period effect. Therefore, all control data were compiled into a single dataset, as well as all treatment data for each supplement time (AM or PM). Statistical analysis was based on AM control vs. AM treatment, and PM control vs. PM Treatment. Twenty-four hour activity rhythms were assessed for 5 consecutive days and 5 nights for Example 1 or 3 consecutive days and 4 nights for Example 2 using the Actiwatch method (Mini-Mitter® Actiwatch-16® activity monitoring system, Respironics Co. Inc., Bend, Oreg.). The Actiwatch® was placed inside a specially designed animal case and attached to a collar around the dog's neck. The dogs were allowed to follow their usual patterns of activity, test, exercise, and feeding. Daytime activity was recorded to represent the 12 hour light phase from 7 am to 7 pm. […]

senior dogs [2] = test: Actiware sleep analysis, Example 2 (melatonin only, cross-over, AM or PM); assay type: in vivo, dog; conditions: for Nap Duration / Total Daytime Naps / Total Daytime Sleep Minutes / Total Night-Time Awakenings / Total Night-Time Wake Minutes: melatonin only, mean +/- std error
Method: Using a cross-over design, all animals were administered a control placebo and a treatment supplement containing melatonin. The animals were senior animals, dogs greater than 10 years of age. There were 4 males and 4 females in each group. For the intervention phases (phases 2 and 4), all animals were administered melatonin in the AM or PM. During the control and cross-over phases (phase 1 and 3, respectively) the animals were administered a placebo comprising methylcellulose contained in a gel capsule in the AM or PM, as appropriate.
Each phase lasted 35 days. Starting on day 29 of each phase, the animals locomotor behavioral activity was monitored for 4 consecutive days.
The placebo consisted of the carrier (methylcellulose) contained in a gel capsule and was provided during the control phases (Phases 1 and 3) either with the AM or PM feeding, as appropriate to complement the supplement time (luring the following intervention phase. For example, placebo in AM during phase 1, then supplement in AM during phase 2.
For phase 2, the first supplement treatment phase, the animals were given supplements of melatonin. Further, for half of the animals, the supplements were in the morning with the AM feeding and half were given in the evening with the PM feeding. Thus, of the 4 males, 2 were administered the melatonin in the morning and two in the evening.
During phase 3, the second control phase, delivery of the methylcellulose in a gel capsule was provided either with the AM or PM feeding, as appropriate to cross-over the treatment from phase 1-2.
For phase 4, the second supplement treatment phase, the procedure was exactly the same as phase 2, except that for a given animal the supplementation time was switched from phase 2. Thus, if male was administered melatonin in the morning with the AM feeding in phase 2, the male was administered melatonin in the evening with the PM feeding in phase 4.
Data analysis of periods indicated no period effect. Therefore, all control data were compiled into a single dataset, as well as all treatment data for each supplement time (AM or PM). Statistical analysis was based on AM control vs. AM treatment, and PM control vs. PM Treatment.
Twenty-four hour activity rhythms were assessed for 5 consecutive days and 5 nights for Example 1 or 3 consecutive days and 4 nights for Example 2 using the Actiwatch method (Mini-Mitter® Actiwatch-16® activity monitoring system, Respironics Co. Inc., Bend, Oreg.). The Actiwatch® was placed inside a specially designed animal case and attached to a collar around the dog's neck. The dogs were allowed to follow their usual patterns of activity, test, exercise, and feeding.
The Actiware® software was used to generate total daily, light phase (12-h daytime: 7 am-7 pm), and dark phase (12-h night-time: 7 PM-7 AM) total sleep or wake minutes. Light phase naps represent sleep bouts occurring during the 12-h light phase interval. Dark phase wake bouts relied awake activity during the night-time sleep interval and not the 12-h dark phase interval. Total number of bouts and bout duration were determined for both light phase naps and dark phase awakenings.
The total number of sleep minutes recorded during the daytime phase of Example 2 was used to calculate the number of nap bouts and average nap duration during this same period.

COc1ccc2[nH]cc(CCNC(C)=O)c2c1 [Melatonin Only, melatonin]
Total Daytime Activity Counts (senior dogs [1]; AM Supplement): 115,705 +/− 23,249
Total Daytime Activity Counts (senior dogs [1]; PM Supplement, 1 mg/kg BW, 35 days): 114,816 +/− 34,282
reduction in total daytime activity counts compared to dogs on the control food (senior dogs [1]; PM, melatonin 1 mg/kg BW, 35 days, not statistically significant): 16%
daytime activity effect versus placebo group (senior dogs [1]; melatonin supplemented in the AM): not significantly different from the placebo group
Nap Duration (senior dogs [2]; AM Supplement): 4.2 +/− 0.7
Total Daytime Naps (senior dogs [2]; AM Supplement): 58.3 +/− 3.5
Total Daytime Sleep Minutes (senior dogs [2]; AM Supplement): 240 ± 32 min
Total Night-Time Awakenings (senior dogs [2]; AM Supplement): 69.5 +/− 6.9
Total Night-Time Wake Minutes (senior dogs [2]; AM Supplement): 198 ± 35 min
Nap Duration (senior dogs [2]; PM Supplement): 6.4 +/− 1.2
Total Daytime Naps (senior dogs [2]; PM Supplement): 45.5 +/− 4.7
Total Daytime Sleep Minutes (senior dogs [2]; PM Supplement): 264 ± 28 min
Total Night-Time Awakenings (senior dogs [2]; PM Supplement): 52.6 +/− 5.7
Total Night-Time Wake Minutes (senior dogs [2]; PM Supplement): 209 ± 37 min
increase in total daytime sleep minutes compared to dogs on the control food (senior dogs [2]; PM, melatonin 1 mg/kg BW, 35 days, not statistically significant (p=0.25)): 21%
decrease in total number of awakenings during the sleep phase compared to the control group (senior dogs [2]; melatonin alone with the PM meal): 22%
decrease in average nap length compared to control group (senior dogs [2]; melatonin with the AM meal): 31%
increase in the number of awakenings compared to control group (senior dogs [2]; melatonin with the AM meal): 16.6%
increase in the number of naps compared to control group (senior dogs [2]; melatonin with the AM meal): 10%
increase in night-time wake minutes compared to control group (senior dogs [2]; melatonin with the AM meal, not different from control data): 41%
total number of naps during the 12 hour daytime phase compared to the control group (senior dogs [2]; melatonin with the PM meal): did not change at all
increase in average nap duration compared to the control group (senior dogs [2]; melatonin with the PM meal, 12 hour daytime phase): 18.5%
decrease in total night-time wake minutes compared to the control group (senior dogs [2]; melatonin with the PM meal, not statistically significant): 18.6%
